Assay results taken from article PMC7153038, “Pharmacologic inhibition of RGD‐binding integrins ameliorates fibrosis and improves function following kidney injury” (Physiological Reports, 2020).
Read-outs that look alike come from different tables or passages of the source.

How the values were obtained:
[1] = molecular target: integrin αvβ3 (Homo sapiens, UniProt P05106+P06756); assay: integrin αvβ3-mediated cell attachment to ligand; format: cell-based; conditions: mean and SD, at least 3 independent assays, read-out: IC50, inhibition of αvβ3-mediated cell attachment
integrin αvβ3, sequence (P06756 31-889 limits assumed): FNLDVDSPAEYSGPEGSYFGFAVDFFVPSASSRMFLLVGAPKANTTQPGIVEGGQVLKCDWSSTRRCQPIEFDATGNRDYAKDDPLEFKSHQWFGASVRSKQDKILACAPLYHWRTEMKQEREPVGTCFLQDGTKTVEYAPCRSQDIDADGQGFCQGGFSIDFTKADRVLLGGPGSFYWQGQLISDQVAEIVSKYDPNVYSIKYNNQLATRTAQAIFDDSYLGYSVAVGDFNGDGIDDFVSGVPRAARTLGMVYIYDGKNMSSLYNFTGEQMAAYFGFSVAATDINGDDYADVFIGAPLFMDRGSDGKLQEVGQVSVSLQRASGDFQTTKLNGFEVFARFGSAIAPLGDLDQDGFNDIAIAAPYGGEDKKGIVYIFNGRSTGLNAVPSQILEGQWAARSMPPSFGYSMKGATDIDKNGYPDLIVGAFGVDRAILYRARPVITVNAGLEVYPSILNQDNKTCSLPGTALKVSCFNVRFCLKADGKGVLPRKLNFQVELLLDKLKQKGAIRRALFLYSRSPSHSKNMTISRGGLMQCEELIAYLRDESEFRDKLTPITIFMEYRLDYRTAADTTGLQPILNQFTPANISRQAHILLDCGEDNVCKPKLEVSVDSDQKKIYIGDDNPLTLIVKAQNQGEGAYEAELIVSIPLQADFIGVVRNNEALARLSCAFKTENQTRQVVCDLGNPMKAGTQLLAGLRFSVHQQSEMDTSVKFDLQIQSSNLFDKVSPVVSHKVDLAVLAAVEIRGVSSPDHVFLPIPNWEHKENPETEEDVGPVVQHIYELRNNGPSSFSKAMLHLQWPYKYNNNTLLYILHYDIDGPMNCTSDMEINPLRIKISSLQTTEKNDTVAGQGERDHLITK
integrin αvβ3, sequence (P06756 891-1048 partner limits assumed): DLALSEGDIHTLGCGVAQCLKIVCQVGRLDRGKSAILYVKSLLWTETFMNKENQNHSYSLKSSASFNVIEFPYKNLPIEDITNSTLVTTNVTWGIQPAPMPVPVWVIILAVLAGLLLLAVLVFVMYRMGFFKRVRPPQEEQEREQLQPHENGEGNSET
integrin αvβ3, sequence (P05106 27-788): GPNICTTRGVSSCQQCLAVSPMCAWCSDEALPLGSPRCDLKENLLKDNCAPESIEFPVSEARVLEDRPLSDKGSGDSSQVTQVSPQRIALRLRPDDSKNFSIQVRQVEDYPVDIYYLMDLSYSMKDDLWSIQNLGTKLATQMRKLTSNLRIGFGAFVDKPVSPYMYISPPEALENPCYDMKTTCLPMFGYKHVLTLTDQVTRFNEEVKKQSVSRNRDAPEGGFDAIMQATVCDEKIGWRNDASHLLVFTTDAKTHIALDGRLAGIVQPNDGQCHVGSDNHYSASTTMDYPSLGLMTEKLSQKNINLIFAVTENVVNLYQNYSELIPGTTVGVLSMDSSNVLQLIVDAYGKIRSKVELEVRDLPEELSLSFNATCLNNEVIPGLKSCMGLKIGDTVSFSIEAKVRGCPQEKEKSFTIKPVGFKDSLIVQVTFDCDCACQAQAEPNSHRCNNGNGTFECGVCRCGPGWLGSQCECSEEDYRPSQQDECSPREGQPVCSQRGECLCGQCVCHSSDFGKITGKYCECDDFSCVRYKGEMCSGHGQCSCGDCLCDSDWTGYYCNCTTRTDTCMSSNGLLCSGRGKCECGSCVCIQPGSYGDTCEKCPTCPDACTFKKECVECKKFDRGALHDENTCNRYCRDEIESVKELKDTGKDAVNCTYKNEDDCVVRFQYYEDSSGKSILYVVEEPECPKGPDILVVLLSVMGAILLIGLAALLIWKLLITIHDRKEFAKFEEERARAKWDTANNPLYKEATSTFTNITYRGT
Experimental: (§1) The RGD peptidomimetic CWHM‐12 was synthesized as described in detail previously (Henderson et al., 2013). A close structural analog of this compound with improved oral bioavailability, CWHM‐680, was also synthesized at Saint Louis University. Potency for the compounds in blocking cell attachment mediated by integrins αvβ3, αvβ5, and αvβ6 was measured as previously described (Henderson et al., 2013). Potency for blocking cell attachment mediated by integrins αvβ1, αvβ8, and α8β1 was measured using modifications of this method which are briefly summarized as follows: To assess CWHM‐12 and CWHM‐680 effects on cellular αvβ1 function, we varied its concentration in an assay measuring binding of HEK‐293 cells, which naturally express this integrin (Nagarajan et al., 2007), to the surface of 96‐well plates coated with purified recombinant human TGFβ‐1 latency‐associated peptide (R&D Systems). To assess the effect on cellular αvβ8 function, we performed the assay with the same LAP ligand but with HEK‐293 cells which had been stably transfected to overexpress this integrin. To assess the effect on cellular α8β1 function, we performed the assay using HEK‐293 cells, which had been stably transfected to overexpress this integrin and used purified recombinant mouse nephronectin as the immobilized ligand (R&D Systems). […]

[2] = test system: aristolochic acid-induced kidney injury in ICR mice; assay: aristolochic acid kidney injury model, serum creatinine; format: in vivo, mouse; conditions: AA-injured mice, 100 mg/kg/day s.c. minipump; vehicle 0.32
Experimental: (§2) Alzet osmotic minipumps (Cupertino, CA) were implanted subcutaneously in 8‐ to 10‐week‐old wild‐type male ICR outbred mice (Envigo) one day prior to induction of kidney injury to deliver vehicle (DMSO/H2O 1:1) or CWHM‐12 at a dose of 100 mg/kg per day. A single 5 mg/kg dose of aristolochic acid I sodium salt (Sigma‐Aldrich, A9451) in PBS was administered intraperitoneally to induce kidney injury, and mice were monitored daily for 27 days thereafter. Control (uninjured) mice were injected with an equal volume of PBS. Blood was obtained by maxillary vein puncture on days 0, 5 (peak injury), and 28 (study endpoint). For testing CWHM‐680, oral gavage (100 mg/kg per day) was started one day prior to injection of aristolochic acid I sodium salt and continued once daily until the study endpoint. Blood was obtained at days 0, 7, and 23 (study endpoint). […] Serum creatinine was measured by liquid chromatography–mass spectrometry (LC–MS/MS) at the University of Alabama O’Brien Center Bioanalytical Core. CWHM‐12 and CWHM‐680 concentrations were measured in plasma samples by liquid chromatography–tandem mass spectrometry (LC/MS/MS) using compound spiked into control plasma as a standard. All experiments were performed under protocols approved by the Institutional Animal Care and Use Committee at St. Louis University.

[3] = molecular target: T1, integrin αvβ1 (Homo sapiens, UniProt P05556+P06756); assay: integrin αvβ1-mediated attachment of HEK-293 cells to TGFβ-1 latency-associated peptide; format: cell-based; conditions: mean and SD, at least 3 independent assays, LAP ligand
T1 construct: HEK‐293 cells, which naturally express this integrin; endogenous in cells; host or cells: HEK-293
T1 sequence (P06756 31-889 limits assumed): as the sequence (P06756 31-889 limits assumed) above
T1 sequence (P06756 891-1048 partner limits assumed): as the sequence (P06756 891-1048 partner limits assumed) above
T1 sequence (P05556 21-798): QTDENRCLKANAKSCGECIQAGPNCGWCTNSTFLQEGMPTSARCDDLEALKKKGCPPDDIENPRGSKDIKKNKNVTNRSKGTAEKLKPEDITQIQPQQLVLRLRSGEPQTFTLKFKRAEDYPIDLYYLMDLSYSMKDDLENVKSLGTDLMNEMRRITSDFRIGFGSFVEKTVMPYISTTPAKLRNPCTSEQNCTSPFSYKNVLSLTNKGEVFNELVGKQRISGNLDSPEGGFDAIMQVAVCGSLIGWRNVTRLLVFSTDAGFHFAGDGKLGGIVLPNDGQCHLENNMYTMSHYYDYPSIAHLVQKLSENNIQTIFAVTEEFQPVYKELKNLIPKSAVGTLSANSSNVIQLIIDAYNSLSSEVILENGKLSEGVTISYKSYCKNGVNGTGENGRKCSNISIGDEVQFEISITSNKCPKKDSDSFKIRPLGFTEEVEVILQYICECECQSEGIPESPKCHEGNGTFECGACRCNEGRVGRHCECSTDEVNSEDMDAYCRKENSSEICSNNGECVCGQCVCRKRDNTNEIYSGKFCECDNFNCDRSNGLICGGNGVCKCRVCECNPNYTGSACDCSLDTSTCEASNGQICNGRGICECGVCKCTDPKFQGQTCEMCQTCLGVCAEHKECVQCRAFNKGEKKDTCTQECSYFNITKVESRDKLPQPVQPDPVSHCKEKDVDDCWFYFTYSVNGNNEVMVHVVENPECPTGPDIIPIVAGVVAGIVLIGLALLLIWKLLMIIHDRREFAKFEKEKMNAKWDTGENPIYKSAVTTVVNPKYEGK
Experimental: as §1

[4] = test system: pro-fibrotic gene expression in kidney; assay: aristolochic acid kidney injury model, kidney qRT-PCR; format: in vivo, mouse; conditions: AA-injured, 100 mg/kg/day s.c. minipump, day 27; vehicle 32-fold
Experimental: as §2, with “University. […]” for “University.”

## CC(C)(C)c1cc(Br)cc([C@H](CC(=O)O)NC(=O)CNC(=O)c2cc(O)cc(NC3=NCC(O)CN3)c2)c1 (stereo partly drawn) [CWHM‐12]
[1]; listed as CWHM−12
  IC50: 0.47 ± 0.45 nM
[1]
  IC50: < 1 nM
[2]
  serum creatinine at day 27: 0.15 mg/dL
[3]; listed as CWHM−12, read-out: IC50, inhibition of αvβ1-mediated cell attachment
  IC50: 0.29 ± 0.14 nM
[3]; read-out: IC50, inhibition of αvβ1-mediated cell attachment
  IC50: < 1 nM
[4]
  Col1a1 mRNA expression increase by qRT-PCR compared with uninjured animals: 9 fold
